From publication PMC9578392, “Safety, Tolerability, and Pharmacokinetics of the Novel Antiviral Agent Ensitrelvir Fumaric Acid, a SARS-CoV-2 3CL Protease Inhibitor, in Healthy Adults” (Antimicrobial Agents and Chemotherapy, 2022)

Assay: Blood lipid profiling, single-dose part (Supplementary Table 3)
Type: in vivo, human

In the case of `Cn1cnc(Cn2c(=O)[nH]/c(=N\c3cc4cn(C)nc4cc3Cl)n(Cc3cc(F)c(F)cc3F)c2=O)n1` [Ensitrelvir, ensitrelvir fumaric acid], the “HDL-C, Mean (SD)” value (Cohort B 70 mg single dose, Day 2, baseline mean 436.7) is reported as 413.3 (42.7) mg/L, the “LDL-C, Mean (SD)” value (Cohort B 70 mg single dose, Day 2, baseline mean 995.0) is reported as 1041.7 mg/L and the “Triglyceride, Mean (SD)” value (Cohort B 70 mg single dose, Day 4, baseline mean 1.0330) is reported as 1.4170 mmol/L. The “Cholesterol, Mean (SD)” value (Cohort B 70 mg single dose, Day 4, baseline mean 4.0987) was 4.0515 mmol/L, the “HDL-C, Mean (SD)” value (Cohort B 70 mg single dose, Day 4, baseline mean 436.7) was 411.7 (52.3) mg/L and the “LDL-C, Mean (SD)” value (Cohort B 70 mg single dose, Day 4, baseline mean 995.0) was 946.7 mg/L. For the same compound, the “Triglyceride, Mean (SD)” value (Cohort B 70 mg single dose, Day 7/Early termination, baseline mean 1.0330) was 1.4393 mmol/L, the “Cholesterol, Mean (SD)” value (Cohort B 70 mg single dose, Day 7/Early termination, baseline mean 4.0987) was 3.8145 mmol/L and the “HDL-C, Mean (SD)” value (Cohort B 70 mg single dose, Day 7/Early termination, baseline mean 436.7) was 396.7 (60.2) mg/L. The “LDL-C, Mean (SD)” value (Cohort B 70 mg single dose, Day 7/Early termination, baseline mean 995.0) was 881.7 mg/L, the “Triglyceride, Mean (SD)” value (Cohort B 70 mg single dose, Follow up, baseline mean 1.0330) was 0.8882 mmol/L and the “Cholesterol, Mean (SD)” value (Cohort B 70 mg single dose, Follow up, baseline mean 4.0987) was 3.7368 mmol/L. The “HDL-C, Mean (SD)” value (Cohort B 70 mg single dose, Follow up, baseline mean 436.7) was 420.0 (55.1) mg/L, the “LDL-C, Mean (SD)” value (Cohort B 70 mg single dose, Follow up, baseline mean 995.0) was 873.3 mg/L and the “Triglyceride, Mean (SD)” value (Cohort C fasted state 250 mg single dose, Day 2 [Day 16], baseline mean 0.9596) was 1.3053 mmol/L. For the same compound, the “Cholesterol, Mean (SD)” value (Cohort C fasted state 250 mg single dose, Day 2 [Day 16], baseline mean 4.1053) was 3.8918 mmol/L, the “HDL-C, Mean (SD)” value (Cohort C fasted state 250 mg single dose, Day 2 [Day 16], baseline mean 486.3) was 376.3 (81.9) mg/L and the “LDL-C, Mean (SD)” value (Cohort C fasted state 250 mg single dose, Day 2 [Day 16], baseline mean 900.0) was 916.3 mg/L. The “Triglyceride, Mean (SD)” value (Cohort C fasted state 250 mg single dose, Day 4 [Day 18], baseline mean 0.9596) was 1.2235 mmol/L, the “Cholesterol, Mean (SD)” value (Cohort C fasted state 250 mg single dose, Day 4 [Day 18], baseline mean 4.1053) was 3.9695 mmol/L and the “HDL-C, Mean (SD)” value (Cohort C fasted state 250 mg single dose, Day 4 [Day 18], baseline mean 486.3) was 401.3 (66.4) mg/L. The “LDL-C, Mean (SD)” value (Cohort C fasted state 250 mg single dose, Day 4 [Day 18], baseline mean 900.0) was 942.5 mg/L, the “Triglyceride, Mean (SD)” value (Cohort C fasted state 250 mg single dose, Day 7 [Day 21]/Early termination, baseline mean 0.9596) was 1.0571 mmol/L and the “Cholesterol, Mean (SD)” value (Cohort C fasted state 250 mg single dose, Day 7 [Day 21]/Early termination, baseline mean 4.1053) was 4.0019 mmol/L. The “HDL-C, Mean (SD)” value (Cohort C fasted state 250 mg single dose, Day 7 [Day 21]/Early termination, baseline mean 486.3) was 438.8 (76.6) mg/L, the “LDL-C, Mean (SD)” value (Cohort C fasted state 250 mg single dose, Day 7 [Day 21]/Early termination, baseline mean 900.0) was 923.8 mg/L and the “Triglyceride, Mean (SD)” value (Cohort C fasted state 250 mg single dose, Follow up (n 4), baseline mean 0.9596) was 0.6295 mmol/L. For the same compound, the “Cholesterol, Mean (SD)” value (Cohort C fasted state 250 mg single dose, Follow up (n 4), baseline mean 4.1053) was 3.9760 mmol/L, the “HDL-C, Mean (SD)” value (Cohort C fasted state 250 mg single dose, Follow up (n 4), baseline mean 486.3) was 445.0 mg/L and the “LDL-C, Mean (SD)” value (Cohort C fasted state 250 mg single dose, Follow up (n 4), baseline mean 900.0) was 977.5 mg/L. For the same compound, the “Triglyceride, Mean (SD)” value (Cohort D 500 mg single dose, Day 2, baseline mean 0.7507) was 1.2928 mmol/L, the “Cholesterol, Mean (SD)” value (Cohort D 500 mg single dose, Day 2, baseline mean 4.2838) was 3.9005 mmol/L and the “HDL-C, Mean (SD)” value (Cohort D 500 mg single dose, Day 2, baseline mean 546.7) was 330.0 mg/L. For the same compound, the “LDL-C, Mean (SD)” value (Cohort D 500 mg single dose, Day 2, baseline mean 990.0) was 951.7 mg/L, the “Triglyceride, Mean (SD)” value (Cohort D 500 mg single dose, Day 4, baseline mean 0.7507) was 1.1327 mmol/L and the “Cholesterol, Mean (SD)” value (Cohort D 500 mg single dose, Day 4, baseline mean 4.2838) was 3.8273 mmol/L. The “HDL-C, Mean (SD)” value (Cohort D 500 mg single dose, Day 4, baseline mean 546.7) was 340.0 (74.8) mg/L, the “LDL-C, Mean (SD)” value (Cohort D 500 mg single dose, Day 4, baseline mean 990.0) was 950.0 mg/L and the “Triglyceride, Mean (SD)” value (Cohort D 500 mg single dose, Day 7/Early termination, baseline mean 0.7507) was 0.9937 mmol/L. For the same compound, the “Cholesterol, Mean (SD)” value (Cohort D 500 mg single dose, Day 7/Early termination, baseline mean 4.2838) was 3.8103 mmol/L, the “HDL-C, Mean (SD)” value (Cohort D 500 mg single dose, Day 7/Early termination, baseline mean 546.7) was 421.7 (83.8) mg/L and the “LDL-C, Mean (SD)” value (Cohort D 500 mg single dose, Day 7/Early termination, baseline mean 990.0) was 928.3 mg/L. The “Triglyceride, Mean (SD)” value (Cohort D 500 mg single dose, Follow up, baseline mean 0.7507) was 0.5627 mmol/L, the “Cholesterol, Mean (SD)” value (Cohort D 500 mg single dose, Follow up, baseline mean 4.2838) was 3.6505 mmol/L and the “HDL-C, Mean (SD)” value (Cohort D 500 mg single dose, Follow up, baseline mean 546.7) was 450.0 (85.1) mg/L. For the same compound, the “LDL-C, Mean (SD)” value (Cohort D 500 mg single dose, Follow up, baseline mean 990.0) was 843.3 mg/L, the “Triglyceride, Mean (SD)” value (Cohort E 1000 mg single dose, Day 2, baseline mean 1.0275) was 2.3427 mmol/L and the “Cholesterol, Mean (SD)” value (Cohort E 1000 mg single dose, Day 2, baseline mean 4.1332) was 3.5257 mmol/L. For the same compound, the “HDL-C, Mean (SD)” value (Cohort E 1000 mg single dose, Day 2, baseline mean 413.3) was 166.7 (45.5) mg/L, the “LDL-C, Mean (SD)” value (Cohort E 1000 mg single dose, Day 2, baseline mean 986.7) was 840.0 mg/L and the “Triglyceride, Mean (SD)” value (Cohort E 1000 mg single dose, Day 4, baseline mean 1.0275) was 1.9683 mmol/L. The “Cholesterol, Mean (SD)” value (Cohort E 1000 mg single dose, Day 4, baseline mean 4.1332) was 3.2498 mmol/L, the “HDL-C, Mean (SD)” value (Cohort E 1000 mg single dose, Day 4, baseline mean 413.3) was 180.0 (52.5) mg/L and the “LDL-C, Mean (SD)” value (Cohort E 1000 mg single dose, Day 4, baseline mean 986.7) was 800.0 mg/L. The “Triglyceride, Mean (SD)” value (Cohort E 1000 mg single dose, Day 7/Early termination, baseline mean 1.0275) was 1.2210 mmol/L, the “Cholesterol, Mean (SD)” value (Cohort E 1000 mg single dose, Day 7/Early termination, baseline mean 4.1332) was 3.7628 mmol/L and the “HDL-C, Mean (SD)” value (Cohort E 1000 mg single dose, Day 7/Early termination, baseline mean 413.3) was 303.3 (61.5) mg/L. For the same compound, the “LDL-C, Mean (SD)” value (Cohort E 1000 mg single dose, Day 7/Early termination, baseline mean 986.7) was 1003.3 mg/L, the “Triglyceride, Mean (SD)” value (Cohort E 1000 mg single dose, Follow up, baseline mean 1.0275) was 0.7565 mmol/L and the “Cholesterol, Mean (SD)” value (Cohort E 1000 mg single dose, Follow up, baseline mean 4.1332) was 3.7410 mmol/L. For the same compound, the “HDL-C, Mean (SD)” value (Cohort E 1000 mg single dose, Follow up, baseline mean 413.3) was 343.3 (47.2) mg/L, the “LDL-C, Mean (SD)” value (Cohort E 1000 mg single dose, Follow up, baseline mean 986.7) was 988.3 mg/L and the “Triglyceride, Mean (SD)” value (Cohort J 2000 mg single dose, Day 2, baseline mean 0.9975) was 2.0737 mmol/L. The “Cholesterol, Mean (SD)” value (Cohort J 2000 mg single dose, Day 2, baseline mean 4.4608) was 3.9952 mmol/L, the “HDL-C, Mean (SD)” value (Cohort J 2000 mg single dose, Day 2, baseline mean 543.3) was 225.0 (76.6) mg/L and the “LDL-C, Mean (SD)” value (Cohort J 2000 mg single dose, Day 2, baseline mean 1051.7) was 901.7 mg/L. The “Triglyceride, Mean (SD)” value (Cohort J 2000 mg single dose, Day 4, baseline mean 0.9975) was 1.7668 mmol/L, the “Cholesterol, Mean (SD)” value (Cohort J 2000 mg single dose, Day 4, baseline mean 4.4608) was 3.4133 mmol/L and the “HDL-C, Mean (SD)” value (Cohort J 2000 mg single dose, Day 4, baseline mean 543.3) was 171.7 (55.6) mg/L. For the same compound, the “LDL-C, Mean (SD)” value (Cohort J 2000 mg single dose, Day 4, baseline mean 1051.7) was 865.0 mg/L, the “Triglyceride, Mean (SD)” value (Cohort J 2000 mg single dose, Day 7/Early termination, baseline mean 0.9975) was 0.7867 mmol/L and the “Cholesterol, Mean (SD)” value (Cohort J 2000 mg single dose, Day 7/Early termination, baseline mean 4.4608) was 3.9437 mmol/L. For the same compound, the “HDL-C, Mean (SD)” value (Cohort J 2000 mg single dose, Day 7/Early termination, baseline mean 543.3) was 253.3 mg/L, the “LDL-C, Mean (SD)” value (Cohort J 2000 mg single dose, Day 7/Early termination, baseline mean 1051.7) was 1135.0 mg/L and the “Triglyceride, Mean (SD)” value (Cohort J 2000 mg single dose, Follow up, baseline mean 0.9975) was 0.4255 mmol/L. For the same compound, the “Cholesterol, Mean (SD)” value (Cohort J 2000 mg single dose, Follow up, baseline mean 4.4608) was 3.7112 mmol/L, the “HDL-C, Mean (SD)” value (Cohort J 2000 mg single dose, Follow up, baseline mean 543.3) was 405.0 (45.9) mg/L and the “LDL-C, Mean (SD)” value (Cohort J 2000 mg single dose, Follow up, baseline mean 1051.7) was 951.7 mg/L.
